Here are results for 17 compounds from patent US9580390B2, “Indazole compounds as kinase inhibitors and method of treating cancer with same” (University Health Network, priority 2011, dated 2017).

Assay type in all cases: cell-based
Test [1] concerns ovarian cancer cells (PA-1). The test can be described thus: Cancer cell line growth inhibition (SRB assay). To be noted: read-out: Cancer Cell Line GI50 Range PA-1. (In general: The SRB assay estimates cell density from bound dye.)
In test [2] the test system is colon cancer cells (HCT116). The test can be described thus: Cancer cell line growth inhibition (SRB assay). To be noted: Homo sapiens, HCT-116, read-out: Cancer Cell Line GI50 Range HCT116.
The subject of another test is TICs (Ovarian 2393A). The test can be described thus: Ovarian tumor-initiating cell growth inhibition (Alamar Blue). Conditions: 144 h, 6 days, read-out: Tumor Initiating Cell GI50 Range Ovarain 2393A. Background: Resazurin is reduced to fluorescent resorufin, in cell work by metabolically active cells.
The test system of the next test is TICs (Colon 12). Kind of test: Colon tumor-initiating cell growth inhibition (Alamar Blue). Conditions: 216 h, 9 days, read-out: Tumor Initiating Cell GI50 Range Colon 12.
[3] abbreviates: PA-1 ovarian cancer cells, SRB assay.
The mark [4] stands for this setting: HCT116 colon cancer cells, SRB assay.

Each structure is given as a SMILES string. Like-named read-outs stand apart in the source and are kept apart here.

Usually GI50 stands for the concentration that inhibits growth by half. With `CN1CCC(Oc2ccc(-c3n[nH]c4ccc(C(=O)NC(c5cccs5)C5CC5)cc34)cc2)CC1` (centres unmarked) [Example A147, N-(cyclopropyl(thiophen-2-yl)methyl)-3-(4-((1-methylpiperidin-4-yl)oxy)phenyl)-1H-indazole-5-carboxamide], the GI50 in test [1] (setting [3]) was < 0.1 µM; in test [2] (setting [4]), < 0.1 µM; with TICs (Ovarian 2393A) (ovarian TICs, Alamar Blue) it was < 0.1 µM; in the test on TICs (Colon 12) (colon TICs, Alamar Blue), 0.1 to 0.5 µM.
In the case of `COC[C@@H](NC(=O)c1ccc2[nH]nc(-c3ccc(OC4CCN(C)CC4)cc3)c2c1)c1ccccc1` [Example A173, (S)-N-(2-methoxy-1-phenylethyl)-3-(4-((1-methylpiperidin-4-yl)oxy)phenyl)-5-carboxamide], the GI50 in test [1] (setting [3]) is 0.1 to 0.5 µM; in test [2] (setting [4]) it was 0.1 to 0.5 µM; in the test on TICs (Ovarian 2393A) (ovarian TICs, Alamar Blue), 0.1 to 0.5 µM; in the test with TICs (Colon 12) (colon TICs, Alamar Blue), > 0.5 µM.
Take `O=C(Nc1ccc2[nH]nc(-c3ccc(OC4CCN(C5COC5)CC4)cc3)c2c1)C(c1ccccc1)C1CC1` (centres unmarked) [Example A185, 2-cyclopropyl-N-(3-(4-((1-(oxetan-3-yl)piperidin-4-yl)oxy)phenyl)-1H-indazol-5-yl)-2-phenylacetamide]: the GI50 lay in the range of 0.1 to 0.5 µM in test [1] (setting [3]); 0.1 to 0.5 µM in test [2] (setting [4]); 0.1 to 0.5 µM in the test with TICs (Ovarian 2393A) (ovarian TICs, Alamar Blue); 0.1 to 0.5 µM in the test with TICs (Colon 12) (colon TICs, Alamar Blue).
In the case of `O=CN1CCC(Oc2ccc(-c3n[nH]c4ccc(C(=O)N[C@H](c5ccccn5)C5CC5)cc34)cc2)CC1` [Example A204, (S)-N-(cyclopropyl(pyridin-2-yl)methyl)-3-(4-((1-formylpiperidin-4-yl)oxy)phenyl)-1H-indazole-5-carboxamide], the GI50 in test [1] (setting [3]) is < 0.1 µM; in test [2] (setting [4]), < 0.1 µM; in the test on TICs (Ovarian 2393A) (ovarian TICs, Alamar Blue) it was < 0.1 µM; in the test on TICs (Colon 12) (colon TICs, Alamar Blue), < 0.1 µM.
In the case of `CN1CCC(Oc2ccc(-c3n[nH]c4ccc(C(=O)NC(c5ccccc5)C5CCCCC5)cc34)cc2)CC1` (centres unmarked) [Example A170, N-(cyclohexyl(phenyl)methyl)-3-(4-((1-methylpiperidin-4-yl)oxy)phenyl)-1H-indazole-5-carboxamide], the GI50 was > 0.5 µM in test [1] (setting [3]); > 0.5 µM in test [2] (setting [4]); > 0.5 µM with TICs (Ovarian 2393A) (ovarian TICs, Alamar Blue); > 0.5 µM in the test on TICs (Colon 12) (colon TICs, Alamar Blue).
Turning to `CN1CCC(Oc2ccc(-c3n[nH]c4ccc(C(=O)N[C@H](c5ccccn5)C5CC5)cc34)cc2)CC1` [Example A214, (S)-N-(cyclopropyl(pyridin-2-yl)methyl)-3-(4-((1-methylpiperidin-4-yl)oxy)phenyl)-1H-indazole-5-carboxamide], the GI50 in test [1] (Homo sapiens, PA-1) is < 0.1 µM; in test [2], < 0.1 µM; in the test with TICs (Ovarian 2393A) (Ovarian 2393A TICs) it was < 0.1 µM; with TICs (Colon 12) (Colon 12 TICs), > 0.5 µM.
Take `CN1[C@@H]2CC[C@H]1C[C@@H](Oc1ccc(-c3n[nH]c4ccc(C(=O)N[C@H](c5ccccn5)C5CC5)cc34)cc1)C2` [Example A213, N-((S)-cyclopropyl(pyridin-2-yl)methyl)-3-(4-(((1R,3R,5S)-8-methyl-8-azabicyclo[3.2.1]octan-3-yl)oxy)phenyl)-1H-indazole-5-carboxamide]: the GI50 in test [1] (Homo sapiens, PA-1) is < 0.1 µM; in test [2], < 0.1 µM; in the test on TICs (Ovarian 2393A) (Ovarian 2393A TICs), < 0.1 µM; in the test with TICs (Colon 12) (Colon 12 TICs), > 0.5 µM.
For the compound `COCCN1CCC(Oc2ccc(-c3n[nH]c4ccc(C(=O)NC(c5ccccc5)C5CC5)cc34)cc2)CC1` (centres unmarked) [Example A98, N-(cyclopropyl(phenyl)methyl)-3-(4-((1-(2-methoxyethyl)piperidin-4-yl)oxy)phenyl)-1H-indazole-5-carboxamide], the concentration for 50% growth inhibition (GI50) is < 0.1 µM in test [1] (setting [3]); < 0.1 µM in test [2] (setting [4]); 0.1 to 0.5 µM with TICs (Ovarian 2393A) (ovarian TICs, Alamar Blue); 0.1 to 0.5 µM in the test on TICs (Colon 12) (colon TICs, Alamar Blue).
As for `CN1[C@@H]2CC[C@H]1C[C@@H](Oc1ccc(-c3n[nH]c4ccc(C(=O)NC(c5ccccc5)C5CC5)cc34)cc1)C2` (some centres unmarked) [Example A178], the GI50 in test [1] (setting [3]) was < 0.1 µM; in test [2] (setting [4]), < 0.1 µM; in the test on TICs (Ovarian 2393A) (ovarian TICs, Alamar Blue), 0.1 to 0.5 µM; with TICs (Colon 12) (colon TICs, Alamar Blue), 0.1 to 0.5 µM.
Regarding `O=C(NC(c1ccccc1)C1CC1)c1ccc2[nH]nc(-c3ccc(OC4CN(C5COC5)C4)cc3)c2c1` (centres unmarked) [Example A190, N-(cyclopropyl(phenyl)methyl)-3-(4-((1-(oxetan-3-yl)azetidin-3-yl)oxy)phenyl)-1H-indazole-5-carboxamide], the GI50 in test [1] (setting [3]) lay in the range of 0.1 to 0.5 µM; in test [2] (setting [4]) it was 0.1 to 0.5 µM; with TICs (Ovarian 2393A) (ovarian TICs, Alamar Blue), 0.1 to 0.5 µM; with TICs (Colon 12) (colon TICs, Alamar Blue), 0.1 to 0.5 µM.
Consider `O=C(Nc1ccc2[nH]nc(-c3ccc(N4CCC(O)CC4)cc3)c2c1)C(c1ccsc1)N1CCC1` (centres unmarked) [Example A200, 2-(azetidin-1-yl)-N-(3-(4-(4-hydroxypiperidin-1-yl)phenyl)-1H-indazol-5-yl)-2-(thiophen-3-yl)acetamide], for which the GI50 in test [1] (setting [3]) is < 0.1 µM; in test [2] (setting [4]) it was < 0.1 µM; in the test with TICs (Ovarian 2393A) (ovarian TICs, Alamar Blue), < 0.1 µM; with TICs (Colon 12) (colon TICs, Alamar Blue), 0.1 to 0.5 µM.
`CN1CCC(Oc2ccc(-c3n[nH]c4ccc(C(=O)NC(c5ccccn5)C5CCC5)cc34)cc2)CC1` (centres unmarked) [Example A210, N-(cyclobutyl(pyridin-2-yl)methyl)-3-(4-((1-methylpiperidin-4-yl)oxy)phenyl)-1H-indazole-5-carboxamide]: the 50% growth inhibitory concentration (GI50) in test [1] (Homo sapiens, PA-1) is < 0.1 µM; in test [2], < 0.1 µM; with TICs (Ovarian 2393A) (Ovarian 2393A TICs), 0.1 to 0.5 µM; in the test with TICs (Colon 12) (Colon 12 TICs), 0.1 to 0.5 µM.
Regarding `O=C(N[C@@H](c1ncccc1Cl)C1CC1)c1ccc2[nH]nc(-c3ccc(OC4CCN(C5COC5)CC4)cc3)c2c1` [Example A215, (R)-N-((3-chloropyridin-2-yl)(cyclopropyl)methyl)-3-(4-((1-(oxetan-3-yl)piperidin-4-yl)oxy)phenyl)-1H-indazole-5-carboxamide], the GI50 in test [1] (Homo sapiens, PA-1) was < 0.1 µM; in test [2], < 0.1 µM; in the test on TICs (Ovarian 2393A) (Ovarian 2393A TICs), 0.1 to 0.5 µM; in the test on TICs (Colon 12) (Colon 12 TICs), < 0.1 µM.
For `CN1CCC(Oc2ccc(-c3n[nH]c4ccc(NC(=O)C(OC5CCCC5)c5ccccc5)cc34)cc2)CC1` (centres unmarked) [Example A183, 2-(cyclopentyloxy)-N-(3-(4-((1-methylpiperidin-4-yl)oxy)phenyl)-1H-indazol-5-yl)-2-phenylacetamide], the GI50 is 0.1 to 0.5 µM in test [1] (setting [3]); 0.1 to 0.5 µM in test [2] (setting [4]); > 0.5 µM in the test on TICs (Ovarian 2393A) (ovarian TICs, Alamar Blue); > 0.5 µM in the test with TICs (Colon 12) (colon TICs, Alamar Blue).
Regarding `CN1CCC(Oc2ccc(-c3n[nH]c4ccc(C(=O)NC(c5ccsc5)C5CC5)cc34)cc2)CC1` (centres unmarked) [Example A33, N-(cyclopropyl(thiophen-3-yl)methyl)-3-(4-((1-methylpiperidin-4-yl)oxy)phenyl)-1H-indazole-5-carboxamide], the GI50 in test [2] (setting [4]) was < 0.1 µM; in the test with TICs (Ovarian 2393A) (ovarian TICs, Alamar Blue), 0.1 to 0.5 µM; in the test on TICs (Colon 12) (colon TICs, Alamar Blue) it was 0.1 to 0.5 µM.
With `C[C@H]1CCCN1[C@H](C(=O)Nc1ccc2[nH]nc(-c3ccc(OC4CCN(C)CC4)cc3)c2c1)c1ccsc1` [Example A41, (S)-N-(3-(4-((1-methylpiperidin-4-yl)oxy)phenyl)-1H-indazol-5-yl)-2-((S)-2-methylpyrrolidin-1-yl)-2-(thiophen-3-yl)acetamide], the GI50 in test [2] (setting [4]) is < 0.1 µM; in the test with TICs (Ovarian 2393A) (ovarian TICs, Alamar Blue), < 0.1 µM; with TICs (Colon 12) (colon TICs, Alamar Blue) it was 0.1 to 0.5 µM.
On to `CCc1cccc(CC)c1NC(=O)Nc1ccc2[nH]nc(-c3ccc(OC4CCN(C)CC4)cc3)c2c1` [Example A46, 1-(2,6-diethylphenyl)-3-(3-(4-((1-methylpiperidin-4-yl)oxy)phenyl)-1H-indazol-5-yl)urea], for which the GI50 in test [2] (setting [4]) is < 0.1 µM; in the test on TICs (Ovarian 2393A) (ovarian TICs, Alamar Blue), 0.1 to 0.5 µM; in the test with TICs (Colon 12) (colon TICs, Alamar Blue) it was > 0.5 µM.
